The results in this text go back to US20060247227A1, “Substituted piperidines as histamine h3 receptor ligands” (priority 2003, published 2006).

As usually defined, the Ki is the dissociation constant of the complex between target and ligand, obtained from inhibition or displacement. A low value points to a stronger hold on the target.

Structures can show the parent of a compound that is named as a salt.

This assay deals with T1, histamine H3 receptor (Homo sapiens, UniProt Q9Y5N1).
T1 construct: expressed in transfected cells; host or cells: CHO K1 cells carrying pSwitch, transfected with pGeneH3 and induced with mifepristone; clone 3H3; membranes
In words: Histamine H3 functional antagonist assay ([35S]GTPγS, SPA, membranes of CHO K1 cells expressing the receptor). Type of assay: biochemical. The note with it: histamine-stimulated GTPγS binding, membranes with human H3. The source says: A membrane preparation containing histamine H3 receptors may be prepared in accordance with the following procedures:
(i) Generation of Histamine H3 Cell Line
DNA encoding the human histamine H3 gene (Huvar, A. et al. (1999) Mol. Pharmacol. 55(6), 1101-1107) was cloned into a holding vector, pCDNA3.1 TOPO (InVitrogen) and its cDNA was isolated from this vector by restriction digestion of plasmid DNA with the enzymes BamH1 and Not-1 and ligated into the inducible expression vector pGene (InVitrogen) digested with the same enzymes. The GeneSwitch™ system (a system where in transgene expression is switched off in the absence of an inducer and switched on in the presence of an inducer) was performed as described in U.S. Pat. Nos. 5,364,791; 5,874,534; and 5,935,934. Ligated DNA was transformed into competent DH5α E. coli host bacterial cells and plated onto Luria Broth (LB) agar containing Zeocin™ (an antibiotic which allows the selection of cells expressing the sh ble gene which is present on pGene and pSwitch) at 50 μg ml^−1. Colonies containing the re-ligated plasmid were identified by restriction analysis. DNA for transfection into mammalian cells was prepared from 250 ml cultures of the host bacterium containing the pGeneH3 plasmid and isolated using a DNA preparation kit (Qiagen Midi-Prep) as per manufacturers guidelines (Qiagen).
CHO K1 cells previously transfected with the pSwitch regulatory plasmid (InVitrogen) were seeded at 2×10e6cells per T75 flask in Complete Medium, containing Hams F12 (GIBCOBRL, Life Technologies) medium supplemented with 10% v/v dialysed foetal bovine serum, L-glutamine, and hygromycin ([…]), 24 hours prior to use. Plasmid DNA was transfected into the cells using Lipofectamine plus according to the manufacturers guidelines (InVitrogen). 48 hours post transfection cells were placed into complete medium supplemented with […] Zeocin™.
10-14 days post selection 10 nM Mifepristone (InVitrogen), was added to the culture medium to induce the expression of the receptor. 18 hours post induction cells were detached from the flask using ethylenediamine tetra-acetic acid (EDTA; 1:5000; InVitrogen), following several washes with phosphate buffered saline pH 7.4and resuspended in Sorting Medium containing Minimum Essential Medium (MEM), without phenol red, and supplemented with Earles salts and 3% Foetal Clone II (Hyclone). Approximately 1×10e7 cells were examined for receptor expression by staining with a rabbit polyclonal antibody, 4a, raised against the N-terminal domain of the histamine H3 receptor, incubated on ice for 60 minutes, followed by two washes in sorting medium. Receptor bound antibody was detected by incubation of the cells for 60 minutes on ice with a goat anti rabbit antibody, conjugated with Alexa 488 fluorescence marker (Molecular Probes). Following two further washes with Sorting Medium, cells were filtered through a 50 μm Filcon™ (BD Biosciences) and then analysed on a FACS Vantage SE Flow Cytometer fitted with an Automatic Cell Deposition Unit. Control cells were non-induced cells treated in a similar manner. Positively stained cells were sorted as single cells into 96-well plates, containing Complete Medium containing 500 μg ml^−1 Zeocin™ and allowed to expand before reanalysis for receptor expression via antibody and ligand binding studies. One clone, 3H3, was selected for membrane preparation.
(ii) Membrane Preparation from Cultured Cells
All steps of the protocol are carried out at 4° C. and with pre-cooled reagents. The cell pellet is resuspended in 10 volumes of buffer A2 containing 50 mM N-2-hydroxyethylpiperazine-N′-2-ethanesulfonic acid (HEPES) (pH 7.40) supplemented with […] leupeptin (acetyl-leucyl-leucyl-arginal; Sigma L2884), 25 μg/ml bacitracin (Sigma B0125), 1 mM ethylenediamine tetra-acetic acid (EDTA), 1 mM phenylmethylsulfonyl fluoride (PMSF) and 2×10e-6M pepstain A (Sigma). […]
In general terms: GTPγS is a poorly hydrolysed GTP analogue; its binding reports G protein activation.

T1 sequence (Q9Y5N1 whole entry): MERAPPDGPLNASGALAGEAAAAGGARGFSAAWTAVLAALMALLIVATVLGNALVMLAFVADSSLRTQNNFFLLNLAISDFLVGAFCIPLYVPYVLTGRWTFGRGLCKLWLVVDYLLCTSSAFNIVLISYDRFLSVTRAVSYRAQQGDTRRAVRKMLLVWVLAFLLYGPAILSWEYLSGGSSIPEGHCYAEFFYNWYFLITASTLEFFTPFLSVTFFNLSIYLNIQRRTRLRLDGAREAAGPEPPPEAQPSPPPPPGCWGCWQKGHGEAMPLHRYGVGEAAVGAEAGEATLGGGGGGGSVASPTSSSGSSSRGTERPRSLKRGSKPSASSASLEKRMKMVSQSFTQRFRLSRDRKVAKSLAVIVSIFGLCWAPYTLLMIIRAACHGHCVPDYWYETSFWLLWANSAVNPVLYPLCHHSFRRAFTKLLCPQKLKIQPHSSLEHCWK

Turning to `CN(C)C(=O)c1ccc(N2CCC(OC3CCN(C4CCC4)CC3)CC2)cc1` [Example E13], the inhibition constant Ki is at most 1 nM.

`CCNC(=O)c1cnc(N2CCC(OC3CCN(C4CCC4)CC3)CC2)cn1` [Example E71]: the inhibition constant Ki is at most 1 nM.

Turning to `CC(C)N1CCC(OC2CCN(c3ccc(C(=O)OC(C)(C)C)nc3)CC2)CC1` [Example E95, 1,1-Dimethylethyl 5-(4-{[1-(1-methylethyl)-4-piperidinyl]oxy}-1-piperidinyl)-2-pyridinecarboxylate], the Ki was at most 1 nM.

As to `CNC(=O)c1cccc(N2CCC(OC3CCN(C4CCC4)CC3)CC2)n1` [Example E62], the Ki is at most 1 nM.

As to `CC(C)N1CCC(OC2CCN(c3ccc(C(=O)N(C)C)nc3)CC2)CC1` [Example E32], the Ki is at most 1 nM.

In turn, `CCCNC(=O)c1cnc(N2CCC(OC3CCN(C4CCC4)CC3)CC2)cn1` [Example E72] had a Ki of at most 1 nM.

`CNC(=O)c1ccc(N2CCC(OC3CCN(C4CCC4)CC3)CC2)cc1` [Example E6, 4-[4-[(1-Cyclobutyl-4-piperidinyl)oxy]-1-piperidinyl)-N-methylbenzamide hydrochloride] showed a Ki of at most 1 nM.

As for `CC(=O)c1ccc(N2CCC(OC3CCN(C4CCC4)CC3)CC2)cc1` [Example E48, 1-(4-{4-[(1-Cyclobutyl-4-piperidinyl)oxy]-1-piperidinyl}phenyl)ethanone hydrochloride], the Ki is under 0.316 nM.

In turn, `O=C(NC1CCCC1)c1ccc(N2CCC(OC3CCN(C4CCC4)CC3)CC2)cn1` [Example E46] showed a Ki of at most 1 nM.

The compound `CC(C)N1CCC(OC2CCN(c3ccc(C(=O)N4CCCC4)cc3)CC2)CC1` [Example E10] gave a Ki of at most 1 nM.

In the case of `N#Cc1ccc(N2CCC(OC3CCN(C4CCC4)CC3)CC2)nc1` [Example E2, 6-{4-[(1-Cyclobutyl-4-piperidinyl)oxy]-1-piperidinyl}-3-pyridinecarbonitrile hydrochloride], the Ki was at most 1 nM.

For the compound `CCC(=O)c1ccc(N2CCC(OC3CCN(C4CCC4)CC3)CC2)cc1` [Example E90, 1-(4-{4-[(1-Cyclobutyl-4-piperidinyl)oxy]-1-piperidinyl}phenyl)-1-propanone], the Ki was at most 1 nM.

`CC(=O)c1ccc(N2CCC(OC3CCN(CC4CC4)CC3)CC2)cc1` [Example E103, 1-[4-(4-{[1-(Cyclopropylmethyl)-4-piperidinyl]oxy}-1-piperidinyl)phenyl]ethanone] gave a Ki of under 10 nM.

For `CC[C@@H](C)N1CCC(OC2CCN(c3ccc(C(C)=O)cc3)CC2)CC1` [Example E102], the Ki is at most 1 nM.

Compound `CC(C)N1CCC(OC2CCN(c3ccc(C(=O)N4CCOCC4)cn3)CC2)CC1` [Example E53] had a Ki of under 10 nM.

Turning to `CNC(=O)c1ccc(N2CCC(OC3CCN(C4CCC4)CC3)CC2)nc1` [Example E54], the Ki was at most 1 nM.

In turn, `O=C(c1ccc(N2CCC(OC3CCN(C4CCC4)CC3)CC2)cc1)C1CC1` [Example E91] had a Ki of at most 1 nM.

Regarding `CC(C)N1CCC(OC2CCN(c3ccc(-c4cnco4)cc3)CC2)CC1` [Example E30], the Ki was at most 1 nM.

`Cc1nc(-c2ccc(N3CCC(OC4CCN(C(C)C)CC4)CC3)cc2)co1` [Example E18] showed a Ki of under 10 nM.

`CC(C)N1CCC(OC2CCN(c3ccc(C(=O)N4CCCCC4)nc3)CC2)CC1` [Example E34] gave a Ki of at most 1 nM.

`CNC(=O)c1cccc(N2CCC(OC3CCN(C(C)C)CC3)CC2)n1` [Example E58]: the Ki was under 10 nM.

In turn, `N#Cc1ccc(N2CCC(OC3CCN(C4CCC4)CC3)CC2)cn1` [Example E47, 5-{4-[(1-Cyclobutyl-4-piperidinyl)oxy]-1-piperidinyl}-2-pyridinecarbonitrile hydrochloride] showed a Ki of at most 1 nM.

For the compound `Cc1noc(-c2ccc(N3CCC(OC4CCN(C(C)C)CC4)CC3)c(F)c2)n1` [Example E112, 1-[2-Fluoro-4-(3-methyl-1,2,4-oxadiazol-5-yl)phenyl]-4-{[1-(1-methylethyl)-4-piperidinyl]oxy}piperidine hydrochloride], the Ki is at most 1 nM.

Compound `CCCNC(=O)c1ccc(N2CCC(OC3CCN(C(C)C)CC3)CC2)cn1` [Example E41] gave a Ki of at most 1 nM.

As for `CC(C)NC(=O)c1cnc(N2CCC(OC3CCN(C(C)C)CC3)CC2)cn1` [Example E78], the Ki is at most 1 nM.

`N#Cc1ccc(N2CCC(OC3CCN(C4CCC4)CC3)CC2)cc1` [Example E3, 4-{4-[(1-Cyclobutyl-4-piperidinyl)oxy]-1-piperidinyl}benzonitrile hydrochloride]: the Ki is at most 1 nM.

For the compound `CC(C)(C)OC(=O)c1ccc(N2CCC(OC3CCN(C4CCC4)CC3)CC2)cn1` [Example E96, 1,1-Dimethylethyl 5-{4-[(1-cyclobutyl-4-piperidinyl)oxy]-1-piperidinyl}-2-pyridinecarboxylate], the Ki is at most 1 nM.

In turn, `O=C(NC1CCC1)c1cnc(N2CCC(OC3CCN(C4CCC4)CC3)CC2)cn1` [Example E74] had a Ki of at most 1 nM.

Compound `CC(=O)c1ccc(N2CCC(OC3CCN(C(C)C)CC3)CC2)cc1` [Example E97, 1-[4-(4-{[1-(Methylethyl)-4-piperidinyl]oxy}-1-piperidinyl)phenyl]ethanone] gave an inhibitory constant (Ki) of at most 1 nM.

As for `Cc1ncc(-c2ccc(N3CCC(OC4CCN(C(C)C)CC4)CC3)cc2)o1` [Example E20], the Ki was under 10 nM.

Consider `CC(C)N1CCC(OC2CCN(c3ccc(C(=O)N4CCOCC4)nc3)CC2)CC1` [Example E36], for which the Ki was at most 1 nM.

For `CNC(=O)c1ccc(N2CCC(OC3CCN(C4CCC4)CC3)CC2)cn1` [Example E38, 5-{4-[(1-Cyclobutyl-4-piperidinyl)oxy]-1-piperidinyl}-N-methyl-2-pyridinecarboxamide hydrochloride], the inhibition constant (Ki) was under 0.316 nM.

The compound `CC(C)N1CCC(OC2CCN(c3ccc(C(=O)NC4CCCC4)nc3)CC2)CC1` [Example E45] gave a Ki of at most 1 nM.

The compound `CC(C)N1CCC(OC2CCN(c3ccc(C(=O)NCCCCl)nc3)CC2)CC1` [Example E108, N (3-Chloropropyl)-5-(4-{[1-(1-methylethyl)-4-piperidinyl]oxy}-1-piperidinyl)-2-pyridinecarboxamide hydrochloride] gave a Ki of at most 1 nM.

Consider `O=C(c1cccc(N2CCC(OC3CCN(C4CCC4)CC3)CC2)n1)N1CCCC1` [Example E64], for which the Ki was under 10 nM.

For the compound `CC(C)N1CCC(OC2CCN(c3ccc(C(=O)N(C)C)cc3)CC2)CC1` [Example E12], the Ki was at most 1 nM.

In turn, `c1ncc(-c2ccc(N3CCC(OC4CCN(C5CCC5)CC4)CC3)cc2)o1` [Example E29] had a Ki of at most 1 nM.

`c1ccc(-c2nnc(-c3ccc(N4CCC(OC5CCN(C6CCC6)CC5)CC4)cc3)o2)cc1` [Example E27] showed a Ki of at most 1 nM.

Compound `CC(C)N1CCC(OC2CCN(c3ccc(C(F)(F)F)nn3)CC2)CC1` [Example E83, 3-(4-{[1-(1-Methylethyl)-4-piperidinyl]oxy}-1-piperidinyl)-6-(trifluoromethyl)pyridazine] gave a Ki of under 10 nM.

`O=C(c1ccc(N2CCC(OC3CCN(C4CCC4)CC3)CC2)cn1)N1CCCCC1` [Example E35] had a Ki of at most 1 nM.

`CN(C)C(=O)c1cccc(N2CCC(OC3CCN(C4CCC4)CC3)CC2)n1` [Example E63] had an inhibitory constant (Ki) of under 10 nM.

In the case of `CC(C)N1CCC(OC2CCN(c3ccc(C(F)(F)F)cn3)CC2)CC1` [Example E87, 2-(4-{[1-(1-Methylethyl)-4-piperidinyl]oxy}-1-piperidinyl)-5-(trifluoromethyl)pyridine hydrochloride], the Ki is under 10 nM.
